Assay [1] concerns Bifora radians. Briefly: Herbicidal activity against ALS-inhibiting herbicide-resistant six to eight-leaf stage Bifora radians infested wheat field at ED90 applied by spraying relative to ALS-inhibiting herbicide-sensitive Bifora radians. It is filed as functional.
The test system of assay [2] is Bifora radians. The assay can be described thus: Herbicidal activity against ALS-inhibiting herbicide-resistant four to six-leaf stage Bifora radians infested wheat field at ED50 applied by spraying relative to ALS-inhibiting herbicide-sensitive Bifora radians. It is filed as functional.
In assay [3] the test system is Bifora radians. Briefly: Herbicidal activity against ALS-inhibiting herbicide-resistant two to four-leaf stage Bifora radians infested wheat field at ED90 applied by spraying relative to ALS-inhibiting herbicide-sensitive Bifora radians. It is filed as functional.
Assay [4] concerns Bifora radians. The assay can be described thus: Herbicidal activity against ALS-inhibiting herbicide-resistant two to four-leaf stage Bifora radians infested wheat field at ED50 applied by spraying relative to ALS-inhibiting herbicide-sensitive Bifora radians. The format is functional.
Assay [5] deals with Bifora radians. The assay can be described thus: Herbicidal activity against ALS-inhibiting herbicide-resistant four to six-leaf stage Bifora radians infested wheat field at 15 to 20 g/ha applied by spraying measured after 14 to 56 days post treatment. It is filed as functional, organism-based.
In assay [6] the test system is Bifora radians. The assay can be described thus: Herbicidal activity against ALS-inhibiting herbicide-resistant six to eight-leaf stage Bifora radians infested wheat field at 15 to 20 g/ha applied by spraying measured after 14 to 56 days post treatment. The format is functional, organism-based.
Assay [7] relates to Bifora radians. The assay can be described thus: Herbicidal activity against ALS-inhibiting herbicide-resistant four to six-leaf stage Bifora radians infested wheat field at ED90 applied by spraying relative to ALS-inhibiting herbicide-sensitive Bifora radians. The format is functional.
Assay [8] has as its system Bifora radians. The assay can be described thus: Herbicidal activity against ALS-inhibiting herbicide-resistant two to four-leaf stage Bifora radians infested wheat field at 15 to 20 g/ha applied by spraying measured after 14 to 56 days post treatment. It is filed as functional, organism-based.
Assay [9] deals with Bifora radians. The assay can be described thus: Herbicidal activity against ALS-inhibiting herbicide-resistant six to eight-leaf stage Bifora radians infested wheat field at ED50 applied by spraying relative to ALS-inhibiting herbicide-sensitive Bifora radians. The format is functional.

The source made the active and inactive calls. No cut-off for these calls is given here.

Results on two compounds are retold here after ChEMBL document CHEMBL3046272, “Tolerance of two Bifora radians Bieb populations to ALS inhibitors in winter wheat” (2012).

Regarding `COc1nc(C)nc(NC(=O)NS(=O)(=O)c2ccccc2Cl)n1` [CHLORSULFURON], the Ratio in assay [1] is listed as 2; in assay [2], 1.8; in assay [3], 1.6; in assay [4] it was 1.9; in [7] it was 1.6; in assay [9] it was 2.3. Moreover, the outcome in [5], in [6] and in [8] was Active.
Take `COC(=O)c1ccccc1S(=O)(=O)NC(=O)N(C)c1nc(C)nc(OC)n1` [TRIBENURON METHYL]: the Ratio in [1] worked out at 2.4; in [2], 1.8; in assay [3], 1.8; in [4], 1.7; in assay [7], 1.9; in assay [9], 2.
